From ChEMBL document CHEMBL4837241, “Identification of Betulinic Acid Derivatives as Potent TGR5 Agonists with Antidiabetic Effects via Humanized TGR5H88Y Mutant Mice” (J Med Chem, 2021)
Values after ≈ are worked out from the molar mass of the structure shown. Active and inactive are the calls of the source. The calls are words filed in the database; no cut-off is given here.

Tests used:
[1] = Aqueous solubility of compound; format: physicochemical; settings: buffer
[2] = Apparent permeability in human Caco-2 cells across apical side to basolateral side at 10 uM incubated for 95 mins by liquid chromatography-tandem mass spectrometry; format: ADME, cell-based
[3] = Apparent permeability in human Caco-2 cells across basolateral side to apical side at 10 uM incubated for 95 mins by liquid chromatography-tandem mass spectrometry; format: ADME, cell-based
[4] = Efflux ratio in human Caco-2 cells at 10 uM by LC/MS/MS analysis; format: ADME, cell-based
[5] = Apparent permeability in human Caco2 cells across apical side to basolateral side assessed as drug recovery at 10 uM incubated for 95 mins by liquid chromatography-tandem mass spectrometry; format: ADME, cell-based; settings: Caco-2, read-out: Drug recovery
[6] = Apparent permeability in human Caco2 cells across basolateral side to apical side assessed as drug recovery at 10 uM incubated for 95 mins by liquid chromatography-tandem mass spectrometry; format: ADME, cell-based; settings: Caco-2, read-out: Drug recovery
[7] = target: T1, G-protein coupled bile acid receptor 1 (Homo sapiens, UniProt Q8TDU6); assay: Agonist activity at N-terminal HA-tagged human TGR5 expressed in HEK293 cells assessed as […] in intracellular cAMP levels incubated for 30 mins by Lance Ultra cAMP assay; format: functional, cell-based
T1 sequence (Q8TDU6 whole entry): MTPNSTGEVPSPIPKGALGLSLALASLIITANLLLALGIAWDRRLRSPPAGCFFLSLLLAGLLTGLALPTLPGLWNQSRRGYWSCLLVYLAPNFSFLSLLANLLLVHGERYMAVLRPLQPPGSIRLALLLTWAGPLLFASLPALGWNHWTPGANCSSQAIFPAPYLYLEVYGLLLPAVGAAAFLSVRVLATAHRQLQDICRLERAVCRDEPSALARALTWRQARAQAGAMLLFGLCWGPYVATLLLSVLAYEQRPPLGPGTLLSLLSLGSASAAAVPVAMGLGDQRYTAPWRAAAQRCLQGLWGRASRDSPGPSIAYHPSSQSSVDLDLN

HEK293 [8] = assay: Agonist activity at N-terminal HA-tagged dog TGR5 expressed in HEK293 cells assessed as […] in intracellular cAMP levels incubated for 30 mins by Lance Ultra cAMP assay relative to control; format: cell-based; settings: Canis lupus familiaris, filed as agonist
HEK293 [9] = assay: Ratio of agonist activity at N-terminal HA-tagged mouse TGR5 expressed in HEK293 cells to agonist activity at N-terminal HA-tagged mouse TGR5 H88Y mutant expressed in HEK293 cells; format: cell-based
[10] = target: T2, G-protein coupled bile acid receptor 1 (Homo sapiens) (UniProt Q8TDU6); assay: Agonist activity at N-terminal HA-tagged human TGR5 expressed in HEK293 cells assessed as […] in intracellular cAMP levels incubated for 30 mins by Lance Ultra cAMP assay relative to control; format: functional, cell-based; settings: filed as agonist
T2 sequence (whole entry): T1 sequence (Q8TDU6 whole entry)

Mus musculus [11] = assay: Anti-glycemic activity in fasted C57/BL6 mouse harboring TGR5 H88Y mutant assessed as reduction in plasma glucose at 100 mg/kg administered 30 mins prior to glucose challenge by OGTT; format: functional, organism-based
Mus musculus [12] = assay: Anti-glycemic activity in fasted C57BL/6n mouse harboring wild type TGR5 assessed as reduction in plasma glucose at 100 mg/kg administered 30 mins prior to glucose challenge by OGTT; format: functional, organism-based
Mus musculus [13] = assay: Anti-glycemic activity in fasted C57BL/6n mouse harboring TGR5 H88Y mutant assessed as increase in serum GLP1 at 100 mg/kg administered 30 mins prior to glucose challenge and measured after 15 mins by ELISA method; format: functional, organism-based
Mus musculus [14] = assay: Anti-glycemic activity in fasted C57BL/6n mouse harboring TGR5 H88Y mutant assessed as increase in serum insulin at 100 mg/kg administered 30 mins prior to glucose challenge and measured after 15 mins by ELISA method; format: functional, organism-based
Mus musculus [15] = assay: Anti-glycemic activity in fasted C57BL/6n mouse assessed as increase in serum GLP1 at 100 mg/kg administered 30 mins prior to glucose challenge and measured after 15 mins by ELISA method; format: functional, organism-based
Mus musculus [16] = assay: Anti-glycemic activity in fasted C57BL/6n mouse assessed as increase in serum insulin at 100 mg/kg administered 30 mins prior to glucose challenge and measured after 15 mins by ELISA method; format: functional, organism-based
Pancreatic islet [17] = assay: Stimulation of glucose-induced insulin secretion in pancreatic islets of C57BL/6n mouse harboring TGR5 H88Y mutant at 1 uM incubated for 2 hrs by HTRF method; format: functional, tissue-based
Pancreatic islet [18] = assay: Stimulation of glucose-induced insulin secretion in pancreatic islets of C57BL/6n mouse harboring wild type TGR5 at 1 uM incubated for 2 hrs by HTRF method; format: functional, tissue-based
[19] = target: T3, Bile acid receptor (Homo sapiens) (UniProt Q96RI1); assay: Agonist activity at human FXR (247 to 467 residues) expressed in HEK293 cells at 100 uM incubated for 8 hrs by luciferase assay; format: cell-based
T3 sequence (whole entry): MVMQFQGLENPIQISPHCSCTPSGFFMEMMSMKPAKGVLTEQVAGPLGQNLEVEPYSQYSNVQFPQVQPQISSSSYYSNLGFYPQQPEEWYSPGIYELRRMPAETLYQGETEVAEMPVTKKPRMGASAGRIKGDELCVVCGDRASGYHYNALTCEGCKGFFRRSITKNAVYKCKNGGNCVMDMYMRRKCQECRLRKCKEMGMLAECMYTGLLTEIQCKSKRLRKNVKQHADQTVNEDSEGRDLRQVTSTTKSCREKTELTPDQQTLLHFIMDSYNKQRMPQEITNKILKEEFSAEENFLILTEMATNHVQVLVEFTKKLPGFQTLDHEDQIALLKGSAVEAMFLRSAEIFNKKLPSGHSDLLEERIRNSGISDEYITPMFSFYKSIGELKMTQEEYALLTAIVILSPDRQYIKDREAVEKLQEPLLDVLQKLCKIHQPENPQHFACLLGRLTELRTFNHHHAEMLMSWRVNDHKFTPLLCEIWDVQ

[20] = target: T4, G-protein coupled bile acid receptor 1 (Mus musculus, UniProt Q80SS6); assay: Agonist activity at N-terminal HA-tagged mouse TGR5 expressed in HEK293 cells assessed as […] in intracellular cAMP levels incubated for 30 mins by Lance Ultra cAMP assay; format: functional, cell-based
T4 sequence (Q80SS6 whole entry): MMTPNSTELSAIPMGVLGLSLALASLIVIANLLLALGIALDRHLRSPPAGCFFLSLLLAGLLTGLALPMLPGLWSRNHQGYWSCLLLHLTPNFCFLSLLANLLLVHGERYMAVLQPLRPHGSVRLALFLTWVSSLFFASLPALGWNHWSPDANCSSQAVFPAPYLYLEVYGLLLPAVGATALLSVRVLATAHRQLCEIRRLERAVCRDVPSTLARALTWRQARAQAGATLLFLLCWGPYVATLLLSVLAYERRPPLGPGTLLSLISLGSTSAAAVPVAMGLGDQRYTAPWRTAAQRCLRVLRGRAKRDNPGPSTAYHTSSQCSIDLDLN

[21] = target: T5, G-protein coupled bile acid receptor 1 (Mus musculus) (UniProt Q80SS6); assay: Agonist activity at N-terminal HA-tagged mouse TGR5 expressed in HEK293 cells assessed as […] in intracellular cAMP levels incubated for 30 mins by Lance Ultra cAMP assay relative to control; format: functional, cell-based
T5 sequence (whole entry): T4 sequence (Q80SS6 whole entry)

Compound	solubility [1] [µM]	recovery at 1.583 h, 10 µM [5] [%]	recovery at 1.583 h, 10 µM [6] [%]	EC50 [7] [nM]	Activity (HEK293 [8])	Ratio (HEK293 [9])	Emax [10] [%]	Activity (Mus musculus [11])	Activity [19]	further results
C[C@H](O)[C@@H]1CC[C@]2(C(=O)[O-])CC[C@]3(C)[C@H](CC[C@@H]4[C@@]5(C)CC[C@@H](OC(=O)NC6CC6)C(C)(C)[C@@H]5CC[C@]43C)[C@@H]12.[Na+]	76300	84.6	85.1	–	–	–	–	–	–	Papp A→B at 1.583 h, 10 µM [2]: 7.56 ×10⁻⁶ cm/s; Papp B→A at 1.583 h, 10 µM [3]: 2.49 ×10⁻⁶ cm/s; efflux ratio at 10 µM [4]: 0.329
C[C@H](O)[C@@H]1CC[C@]2(C(=O)O)CC[C@]3(C)[C@H](CC[C@@H]4[C@@]5(C)CC[C@@H](OC(=O)NC6CC6)C(C)(C)[C@@H]5CC[C@]43C)[C@@H]12 [listing 1 of 2 here]	12.2 (≈ 6.63 µg/mL)	–	–	5.07	–	–	–	–	–	–
COc1ccc2cc(CNCCc3ccc(Br)cc3)c(-c3ccsc3)nc2c1	–	–	–	–	Active	5.6	–	–	–	–
C[C@H](O)[C@@H]1CC[C@]2(C(=O)O)CC[C@]3(C)[C@H](CC[C@@H]4[C@@]5(C)CC[C@@H](OC(=O)NC6CC6)C(C)(C)[C@@H]5CC[C@]43C)[C@@H]12 [listing 2 of 2 here]	–	–	–	–	–	–	99	Active	inactive	Activity (Mus musculus [12]): inactive; Activity (Mus musculus [13]): Active; Activity (Mus musculus [14]): Active; Activity (Mus musculus [15]): inactive; Activity (Mus musculus [16]): inactive; Activity (Pancreatic islet [17]): Active; Activity (Pancreatic islet [18]): Active
CCCC(=O)O[C@@H]1CC[C@]2(C)[C@H]3CC[C@@H]4[C@H]5[C@H](C(C)C)CC[C@]5(C(=O)O)CC[C@@]4(C)[C@]3(C)CC[C@H]2C1(C)C	0.13 (≈ 0.0687 µg/mL)	0	0	83.1	–	–	94	inactive	inactive	EC50 [20]: 2610 nM; Emax [21]: 22%
O=C(c1cccnc1Oc1cc(Cl)ccc1Cl)N1CCCc2ccccc21	–	–	–	–	Active	4.9	–	–	–	–
